Calls of active or inactive are those of the source. No cut-off for these calls is given here.
Tests used:
Rattus norvegicus [1] = assay: Analgesic activity in po dosed Sprague-Dawley rat after 15 to 90 mins by tail flick test; assay type: functional
Mus musculus [2] = assay: Analgesic activity in po dosed mouse assessed as inhibition of acetic acid-induced writhing administered 30 mins prior to acetic acid challenge measured after 5 mins for 20 mins; assay type: functional
[3] = Acute toxicity in po dosed mouse; assay type: organism-based; conditions: in vivo
Rattus norvegicus [4] = assay: Antianxiety activity in Long-Evans rat assessed as reduction in motor activity at 5 mg/kg, po after 2 hrs relative to vehicle-treated control; assay type: functional; set-up: scale not given: the % may be the effect or the level left
Rattus norvegicus [5] = assay: Antipsychotic activity in rat assessed as reduction of methamphetamine-induced hyperactivity at 5 mg/kg, po administered prior to methamphetamine challenge relative to vehicle-treated control; assay type: functional; set-up: scale not given: the % may be the effect or the level left
Mus musculus [6] = assay: Antianxiety activity in albino BALB/cJ mouse assessed as reduction in footshock-induced fighting behavior at 10 mg/kg, po after 30 to 90 mins; assay type: functional; set-up: scale not given: the % may be the effect or the level left
Rattus norvegicus [7] = assay: Antihypertensive activity in spontaneously hypertensive rat model assessed as reduction in blood pressure at 1 mg/kg, po after 3 hrs; assay type: functional; set-up: scale not given: the % may be the effect or the level left
Rattus norvegicus [8] = assay: Antihypertensive activity in spontaneously hypertensive rat model assessed as reduction in blood pressure at 1 mg/kg, po after 24 hrs; assay type: functional; set-up: scale not given: the % may be the effect or the level left
Rattus norvegicus [9] = assay: Antihypertensive activity in spontaneously hypertensive rat model assessed as reduction in blood pressure at 3 mg/kg, po after 3 hrs; assay type: functional; set-up: scale not given: the % may be the effect or the level left
Rattus norvegicus [10] = assay: Antihypertensive activity in spontaneously hypertensive rat model assessed as reduction in blood pressure at 3 mg/kg, po after 24 hrs; assay type: functional; set-up: scale not given: the % may be the effect or the level left
Mus musculus [11] = assay: Antianxiety activity in albino BALB/cJ mouse assessed as reduction in footshock-induced fighting behavior at 5 mg/kg, po after 30 to 90 mins; assay type: functional; set-up: scale not given: the % may be the effect or the level left
Mus musculus [12] = assay: Analgesic activity in mouse assessed as inhibition of acetic acid-induced writhing at 10 mg/kg, po administered 30 mins prior to acetic acid challenge measured after 5 mins for 20 mins; assay type: functional
Rattus norvegicus [13] = assay: Antianxiety activity in Long-Evans rat assessed as reduction in motor activity at 10 mg/kg, po after 2 hrs relative to vehicle-treated control; assay type: functional; set-up: scale not given: the % may be the effect or the level left
Rattus norvegicus [14] = species on record: Rattus norvegicus; assay: animal or person; assay type: functional; conditions: Charles River, route oral
Description: Antidiarrheal activity in Charles River rat assessed as inhibition of castor oil-induced diarrhea by measuring protected animals at 0.5 mg/kg, po administered 1 hr prior to castor oil challenge measured after 1 hr relative to vehicle-treated control

Rattus norvegicus [15] = assay: Antipsychotic activity in rat assessed as reduction of methamphetamine-induced hyperactivity at 20 mg/kg, po administered prior to methamphetamine challenge relative to vehicle-treated control; assay type: functional; set-up: scale not given: the % may be the effect or the level left
Rattus norvegicus [16] = assay: Antipsychotic activity in rat assessed as reduction of methamphetamine-induced hyperactivity at 10 mg/kg, po administered prior to methamphetamine challenge relative to vehicle-treated control; assay type: functional; set-up: scale not given: the % may be the effect or the level left

SMILES	Activity (Rattus norvegicus [1])	inhibition (Mus musculus [2])	further results
CC(CCCc1ccc(F)cc1)c1cc(O)c2c(c1)OC(C)(C)C1=C2CNCC1 (stereo unspecified)	inactive	inactive	
Cc1ccc(CCCC(C)c2cc(O)c3c(c2)OC(C)(C)C2=C3CN(Cc3ccccc3)CC2)cc1 (stereo unspecified)	inactive	inactive	
CC(CCc1ccc(F)cc1)c1cc(O)c2c(c1)OC(C)(C)C1=C2CN(Cc2ccccc2)CC1 (stereo unspecified)	inactive	inactive	
CC(CCCc1ccc(F)cc1)c1cc(O)c2c3c(c(=O)oc2c1)CCN(Cc1ccccc1)C3 (stereo unspecified)	inactive	inactive	
CCCCCc1cc(O)c2c(c1)OC(C)(C)C1=C2CNCC1	inactive	inactive	
CC(CCCc1ccc(F)cc1)c1cc(O)c2c3c(c(=O)oc2c1)N1CCC3CC1 (stereo unspecified)	inactive	inactive	
CC(CCc1ccc(F)cc1)c1cc(O)c2c3c(c(=O)oc2c1)CCN(Cc1ccccc1)C3 (stereo unspecified)	inactive	inactive	
CC(CCc1ccc(F)cc1)C(C)c1cc(O)c2c(c1)OC(C)(C)C1=C2CNCC1 (stereo unspecified)	inactive	inactive	
CC(CCCc1ccc(F)cc1)C(C)c1cc(O)c2c3c(c(=O)oc2c1)CCN(Cc1ccccc1)C3 (stereo unspecified)	inactive	inactive	
CC(CCCc1ccc(F)cc1)c1cc(O)c2c3c(c(=O)oc2c1)CCC3 (stereo unspecified)	inactive	inactive	
CC(CCCc1ccc(F)cc1)c1cc(O)c2c(c1)OC(C)(C)C1=C2CN(Cc2ccccc2)CC1 (stereo unspecified)	inactive	inactive	
CC(CCCc1ccc(F)cc1)c1cc(O)c2c3c(c(=O)oc2c1)SCC3C (stereo unspecified)	inactive	inactive	
CC1CCc2c(c3c(O)cc(C(C)C(C)CCc4ccc(F)cc4)cc3oc2=O)C1 (stereo unspecified)	inactive	inactive	
CC(CCCc1ccc(F)cc1)C(C)c1cc(O)c2c(c1)OC(C)(C)C1=C2CN(Cc2ccccc2)CC1 (stereo unspecified)	inactive	inactive	
C#CCN1CCC2=C(C1)c1c(OC(=O)CCCN3CCOCC3)cc(C(C)CCCc3ccc(F)cc3)cc1OC2(C)C.Cl.Cl (stereo unspecified)			ED50 (Rattus norvegicus [1]): 5 mg/kg; LD50 [3]: ≥ 1000 mg/kg; Activity (Rattus norvegicus [4]): 48%; ED50 (Mus musculus [2]): 9 mg/kg; Activity (Rattus norvegicus [5]): 33%; Activity (Mus musculus [6]): 0%
CC1CCc2c(c3c(O)cc(C(C)CCc4ccc(F)cc4)cc3oc2=O)C1 (stereo unspecified)	inactive	inactive	
CC1CCc2c(c3c(O)cc(C(C)CCCc4ccccc4)cc3oc2=O)C1 (stereo unspecified)	inactive	inactive	
Cc1ccc(CCCC(C)c2cc(O)c3c4c(c(=O)oc3c2)CCN(Cc2ccccc2)C4)cc1 (stereo unspecified)	inactive	inactive	
CC1CCc2c(c3c(O)cc(C(C)CCCCc4ccc(F)cc4)cc3oc2=O)C1 (stereo unspecified)	inactive	inactive	
CC1CCc2c(c3c(O)cc(C(C)CCCc4ccc(F)cc4)cc3oc2=O)C1 (stereo unspecified)	inactive	inactive	
CC1CCc2c(c3c(O)cc(C(C)C(C)Cc4ccc(F)cc4)cc3oc2=O)C1 (stereo unspecified)	inactive	inactive	

SMILES	Activity (Rattus norvegicus [1])	inhibition (Mus musculus [2])	further results
CC1CCC2=C(C1)c1c(O)cc(CCCCCc3ccc(F)cc3)cc1OC2(C)C (stereo unspecified)			Activity (Rattus norvegicus [7]): 6%; LD50 [3]: ≥ 1000 mg/kg; Activity (Rattus norvegicus [4]): 16%; Activity (Rattus norvegicus [8]): 9%; Activity (Rattus norvegicus [9]): 27%; Activity (Rattus norvegicus [5]): 39%; Activity (Rattus norvegicus [10]): 17%; Activity (Mus musculus [11]): 36%; inhibition in vivo at 10 mg/kg (Mus musculus [12]): 41%
CCCCCc1cc(O)c2c(c1)OC(C)(C)C1=C2CN(Cc2ccccc2)CC1	inactive	inactive	
CNC1=Nc2ccc(Cl)cc2C(c2ccccc2)=[N+]([O-])C1.Cl [CHLORDIAZEPOXIDE HYDROCHLORIDE]			Activity (Rattus norvegicus [4]): 26%; Activity (Mus musculus [6]): 53%; Activity (Rattus norvegicus [13]): 54%
Cc1ccc(CCCC(C)c2cc(O)c3c(c2)OC(C)(C)C2=C3CC(C)CC2)cc1 (stereo unspecified)			Activity (Rattus norvegicus [7]): 0%; LD50 [3]: ≥ 1000 mg/kg; Activity (Rattus norvegicus [4]): 16%; Activity (Rattus norvegicus [8]): 0%; Activity (Rattus norvegicus [9]): 26%; inhibition in vivo at 0.5 mg/kg (Rattus norvegicus [14]): 90%; Activity (Rattus norvegicus [5]): 66%; Activity (Mus musculus [6]): 10%; Activity (Rattus norvegicus [10]): 16%; inhibition in vivo at 10 mg/kg (Mus musculus [12]): 30%; Activity (Rattus norvegicus [15]): 72%
CC(CCc1ccc(F)cc1)C(C)c1cc(O)c2c(c1)OC(C)(C)C1=C2CN(Cc2ccccc2)CC1 (stereo unspecified)	inactive	inactive	
CC(CCCCc1ccc(F)cc1)c1cc(O)c2c(c1)OC(C)(C)C1=C2CN(Cc2ccccc2)CC1 (stereo unspecified)	inactive	inactive	
CC(CCc1ccc(F)cc1)c1cc(O)c2c(c1)OC(C)(C)C1=C2CNCC1 (stereo unspecified)	inactive	inactive	
C#CCN1CCC2=C(C1)c1c(OC(=O)C(C)CCN3CCOCC3)cc(C(C)CCCc3ccc(F)cc3)cc1OC2(C)C.Cl (stereo unspecified)			ED50 (Rattus norvegicus [1]): 7 mg/kg; LD50 [3]: ≥ 1000 mg/kg; Activity (Rattus norvegicus [4]): 71%; ED50 (Mus musculus [2]): 7.2 mg/kg; Activity (Rattus norvegicus [5]): 24%; Activity (Mus musculus [6]): 26%
Cc1ccc(CCCC(C)c2cc(O)c3c(c2)OC(C)(C)C2=C3CNCC2)cc1 (stereo unspecified)	inactive	inactive	
CC(CCCCc1ccc(F)cc1)c1cc(O)c2c(c1)OC(C)(C)C1=C2CNCC1 (stereo unspecified)	inactive	inactive	
CC1CCc2c(c3c(O)cc(C(C)C(C)CCCc4ccc(F)cc4)cc3oc2=O)C1 (stereo unspecified)	inactive	inactive	
CC1CCc2c(c3c(O)cc(C(C)CCCN(C)C)cc3oc2=O)C1 (stereo unspecified)	inactive	inactive	
Cc1ccc(CCCC(C)c2cc(O)c3c4c(c(=O)oc3c2)CCC(C)C4)cc1 (stereo unspecified)	inactive	inactive	
CC(CCCCc1ccc(F)cc1)c1cc(O)c2c3c(c(=O)oc2c1)CCN(Cc1ccccc1)C3 (stereo unspecified)	inactive	inactive	
CC1CCc2c(c3c(O)cc(C(C)C(C)CCc4ccncc4)cc3oc2=O)C1 (stereo unspecified)	inactive	inactive	
CC1CCC2=C(C1)c1c(O)cc(C(C)C(C)Cc3ccc(F)cc3)cc1OC2(C)C (stereo unspecified)			Activity (Rattus norvegicus [16]): 28%; Activity (Rattus norvegicus [7]): 22%; LD50 [3]: ≥ 1000 mg/kg; Activity (Rattus norvegicus [4]): 66%; Activity (Rattus norvegicus [8]): 9%; Activity (Rattus norvegicus [9]): 21%; Activity (Mus musculus [6]): 4%; Activity (Rattus norvegicus [10]): 24%; inhibition in vivo at 10 mg/kg (Mus musculus [12]): 38%; Activity (Rattus norvegicus [15]): 56%
C#CCN1CCC2=C(C1)c1c(O)cc(C(C)C(C)CCCc3ccc(F)cc3)cc1OC2(C)C (stereo unspecified)			LD50 [3]: ≥ 1000 mg/kg; Activity (Rattus norvegicus [4]): 46%; inhibition in vivo at 0.5 mg/kg (Rattus norvegicus [14]): 0%; Activity (Rattus norvegicus [5]): 0%; Activity (Mus musculus [11]): 23%; inhibition in vivo at 10 mg/kg (Mus musculus [12]): 35%
CC(CCc1ccc(F)cc1)C(C)c1cc(O)c2c3c(c(=O)oc2c1)CCN(Cc1ccccc1)C3 (stereo unspecified)	inactive	inactive	
CC1CCc2c(c3c(O)cc(CCCCCc4ccc(F)cc4)cc3oc2=O)C1 (stereo unspecified)	inactive	inactive	
CCCCCc1cc(O)c2c3c(c(=O)oc2c1)CCN(Cc1ccccc1)C3	inactive	inactive	
CC(CCCc1ccc(F)cc1)C(C)c1cc(O)c2c(c1)OC(C)(C)C1=C2CNCC1 (stereo unspecified)	inactive	inactive	

Source: ChEMBL document CHEMBL3272295, “Drugs derived from cannabinoids. 5. delta6a,10a-Tetrahydrocannabinol and heterocyclic analogs containing aromatic side chains” (J Med Chem, 1976)
